One experiment addresses T1, BRAF V600E (Homo sapiens, UniProt P15056, V600E).
T1 construct: purchased Upstate Biotechnology
In words: BRAF V600E biochemical kinase activity assay (AlphaScreen, biotin-MEK1 substrate). The following applies: BRAF V600E biochemical inhibitory activity. Background: Alpha assays give light when donor and acceptor beads are brought close together.

For another experiment, the system named is B9 (HRAS Q61L) cell line. In words: B9 P-ERK cell activation assay (AlphaScreen). The class given is cell-based, mouse. The following applies: Mus musculus; P-ERK cell activation, B9; numeric bounds; read-out: Cell activity (EC50 μM) B9_pERK. In outline: (§1)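 Phospho-ERK1/2 (Thr202/Tyr204) in lysates quantified via AlphaScreen bead proximity, after one-hour, 37° C. exposure of cells to eight compound concentrations. Lines: IPC-298 human melanoma with activated NRAS; B9 mouse squamous carcinoma with activated HRAS.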

For experiment [1], the system named is IPC-298 (NRAS Q61L) cell line. In words: IPC-298 P-ERK cell activation assay (AlphaScreen). It counts as cell-based, human. Conditions: Homo sapiens; P-ERK cell activation, IPC-298; numeric bounds; read-out: Cell activity (EC50 μM) IPC-298_P-ERK. In outline:
as §1

The test system of experiment [2] is A375 (BRAF V600E) cell line. In words: A375 P-ERK inhibition assay (AlphaScreen). The class given is cell-based, human. The following applies: Homo sapiens, A-375; A375_P-ERK. In outline: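 Phospho-ERK1/2 (Thr202/Tyr204) detected in lysates by AlphaScreen proximity signal, pairing a total-ERK antibody with a phospho-specific antibody. Before lysis, A375 cells received compound as an 8-point titration for one hour at 37° C.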

A value given as a limit tells only on which side of the number the result lay.

By IC50 is commonly meant the point on the concentration scale where inhibition reaches its midpoint. Read a low IC50 as greater potency. A word on the EC50: it is the concentration giving half of the maximal effect.

T1 sequence (P15056 whole entry V600E): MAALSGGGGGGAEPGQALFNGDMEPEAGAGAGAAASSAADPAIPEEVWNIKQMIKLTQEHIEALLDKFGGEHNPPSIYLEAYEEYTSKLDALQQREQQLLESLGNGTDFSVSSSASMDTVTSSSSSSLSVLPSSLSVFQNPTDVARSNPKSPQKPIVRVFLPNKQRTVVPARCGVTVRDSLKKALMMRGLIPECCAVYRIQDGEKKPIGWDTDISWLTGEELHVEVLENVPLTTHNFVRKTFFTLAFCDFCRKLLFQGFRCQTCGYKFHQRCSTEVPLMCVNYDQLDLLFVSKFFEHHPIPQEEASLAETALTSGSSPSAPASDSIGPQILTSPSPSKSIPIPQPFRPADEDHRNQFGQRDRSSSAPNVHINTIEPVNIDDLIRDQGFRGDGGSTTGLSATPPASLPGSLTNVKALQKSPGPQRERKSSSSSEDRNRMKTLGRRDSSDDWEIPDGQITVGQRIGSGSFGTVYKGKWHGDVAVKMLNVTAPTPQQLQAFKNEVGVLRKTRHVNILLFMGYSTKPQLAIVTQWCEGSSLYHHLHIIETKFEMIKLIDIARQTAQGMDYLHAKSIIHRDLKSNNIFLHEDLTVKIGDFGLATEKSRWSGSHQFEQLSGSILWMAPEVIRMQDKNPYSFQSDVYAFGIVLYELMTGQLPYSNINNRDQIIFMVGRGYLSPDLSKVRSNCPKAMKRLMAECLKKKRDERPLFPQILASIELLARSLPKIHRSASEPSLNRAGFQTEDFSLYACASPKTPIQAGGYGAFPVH

Consider `CC(=O)Nc1ccc(NC(=O)c2c(F)ccc(NS(=O)(=O)C3CCCC3)c2F)cn1` [P-2035, N-(6-acetamido-3-pyridyl)-3-(cyclopentylsulfonylamino)-2,6-difluoro-benzamide], for which the IC50 against BRAF V600E fell in the range of 0.0001 to 1 µM; in experiment [2], 1 to 10 µM. Further, the EC50 (in the experiment on B9 (HRAS Q61L) cell line; in experiment [1]) was more than 10 µM each time.
Turning to `O=C(c1cccc(NS(=O)(=O)N2CCCC2)c1F)c1c[nH]c2ncnc(NC3CC3)c12` [P-2070, N-[3-[4-(cyclopropylamino)-7H-pyrrolo[2,3-d]pyrimidine-5-carbonyl]-2-fluoro-phenyl]pyrrolidine-1-sulfonamide], the 50% inhibitory concentration (IC50) (at BRAF V600E; in experiment [2]) was 0.0001 to 1 µM each time. Moreover, the EC50 (in the experiment on B9 (HRAS Q61L) cell line; in experiment [1]) was more than 10 µM each time.
For the compound `CN(C)S(=O)(=O)Nc1cc(F)cc(C(=O)c2c[nH]c3ncc(-c4cnc(C5CC5)nc4)cc23)c1F` [P-2173, 5-(2-cyclopropylpyrimidin-5-yl)-3-[3-(dimethylsulfamoylamino)-2,5-difluoro-benzoyl]-1H-pyrrolo[2,3-b]pyridine], the IC50 (on BRAF V600E; in experiment [2]) was 0.0001 to 1 µM in each case. In addition, the EC50 is more than 10 µM in the experiment on B9 (HRAS Q61L) cell line and more than 1 µM in experiment [1].
In the case of `CCN(C)S(=O)(=O)Nc1ccc(F)c(C(=O)c2c[nH]c3ncnc(NCC4CC4)c23)c1F` [P-2061, 4-(cyclopropylmethylamino)-5-[3-[[ethyl(methyl)sulfamoyl]amino]-2,6-difluoro-benzoyl]-7H-pyrrolo[2,3-d]pyrimidine], the IC50 (against BRAF V600E; in experiment [2]) was 0.0001 to 1 µM throughout. Besides, the EC50 (in the experiment on B9 (HRAS Q61L) cell line; in experiment [1]) was more than 10 µM in each case.
With `[2H]C1([2H])CCC([2H])([2H])N1S(=O)(=O)Nc1cc(Cl)cc(C(=O)c2c[nH]c3ncc(-c4cnc(C5CC5)nc4)cc23)c1F` [P-2176, N-[5-chloro-3-[5-(2-cyclopropylpyrimidin-5-yl)-1H-pyrrolo[2,3-b]pyridine-3-carbonyl]-2-fluoro-phenyl]-2,2,5,5-tetradeuterio-pyrrolidine-1-sulfonamide], the IC50 (on BRAF V600E; in experiment [2]) was 0.0001 to 1 µM each time. In addition, the EC50 (in the experiment with B9 (HRAS Q61L) cell line; in experiment [1]) was more than 10 µM throughout.
As for `CCC(C)S(=O)(=O)Nc1ccc(F)c(C(=O)c2c[nH]c3ncnc(NCC4CC4)c23)c1F` (centres unmarked) [P-2056, N-[3-[4-(cyclopropylmethylamino)-7H-pyrrolo[2,3-d]pyrimidine-5-carbonyl]-2,4-difluoro-phenyl]butane-2-sulfonamide], the IC50 (against BRAF V600E; in experiment [2]) was 0.0001 to 1 µM in each case. Moreover, the concentration giving a half-maximal response (EC50) (in the experiment with B9 (HRAS Q61L) cell line; in experiment [1]) was more than 10 µM each time.
`Cc1ncnc2[nH]cc(C(=O)c3cccc(NS(=O)(=O)N4CCCC4)c3F)c12` [P-2076, N-[2-fluoro-3-(4-methyl-7H-pyrrolo[2,3-d]pyrimidine-5-carbonyl)phenyl]pyrrolidine-1-sulfonamide]: the IC50 (against BRAF V600E; in experiment [2]) was 0.0001 to 1 µM throughout. The EC50 (in the experiment on B9 (HRAS Q61L) cell line; in experiment [1]) was more than 10 µM throughout.
In the case of `CCN(C)S(=O)(=O)Nc1cccc(-c2nc(C(C)(C)C)sc2-c2ccnc(OC)n2)c1F` [P-2088, 2-tert-butyl-4-[3-[[ethyl(methyl)sulfamoyl]amino]-2-fluoro-phenyl]-5-(2-methoxypyrimidin-4-yl)thiazole], the IC50 (against BRAF V600E; in experiment [2]) was 0.0001 to 1 µM in each case. For the same compound, the concentration for a half-maximal effect (EC50) (in the experiment with B9 (HRAS Q61L) cell line; in experiment [1]) was more than 10 µM in each case.
On to `CCN(C)S(=O)(=O)Nc1ccc(F)c(C(=O)c2c[nH]c3ncnc(NCCOC)c23)c1F` [P-2100, 5-[3-[[ethyl(methyl)sulfamoyl]amino]-2,6-difluoro-benzoyl]-4-(2-methoxyethylamino)-7H-pyrrolo[2,3-d]pyrimidine], for which the IC50 (against BRAF V600E; in experiment [2]) was 0.0001 to 1 µM each time. The EC50 (in the experiment on B9 (HRAS Q61L) cell line; in experiment [1]) was more than 10 µM in each case.
On to `CCC(C)S(=O)(=O)Nc1ccc(F)c(C(=O)c2c[nH]c3nccc(OC)c23)c1F` (centres unmarked) [Compound P-2006, N-[2,4-difluoro-3-(4-methoxy-1H-pyrrolo[2,3-b]pyridine-3-carbonyl)phenyl]butane-2-sulfonamide], for which the IC50 (against BRAF V600E; in experiment [2]) was 0.0001 to 1 µM throughout. The EC50 (with B9 (HRAS Q61L) cell line; in experiment [1]) was more than 10 µM each time.
Take `CCN(C)S(=O)(=O)Nc1cccc(C(=O)c2c[nH]c3ncnc(NCC(C)(C)O)c23)c1F` [P-2069, 5-[3-[[ethyl(methyl)sulfamoyl]amino]-2-fluoro-benzoyl]-4-[(2-hydroxy-2-methyl-propyl)amino]-7H-pyrrolo[2,3-d]pyrimidine]: the IC50 (at BRAF V600E; in experiment [2]) was 0.0001 to 1 µM throughout. Also, the 50% effective concentration (EC50) (in the experiment on B9 (HRAS Q61L) cell line; in experiment [1]) was more than 10 µM each time.
Regarding `CCN(C)S(=O)(=O)Nc1ccc(F)c(C(=O)c2c[nH]c3ncnc(NC4CCC4)c23)c1F` [P-2101, 4-(cyclobutylamino)-5-[3-[[ethyl(methyl)sulfamoyl]amino]-2,6-difluoro-benzoyl]-7H-pyrrolo[2,3-d]pyrimidine], the IC50 (on BRAF V600E; in experiment [2]) was 0.0001 to 1 µM each time. Also, the EC50 (in the experiment on B9 (HRAS Q61L) cell line; in experiment [1]) was more than 10 µM each time.
In the case of `[2H]C1([2H])N(S(=O)(=O)Nc2cc(Cl)cc(C(=O)c3c[nH]c4ncc(-c5cnc(C6CC6)nc5)cc34)c2F)C([2H])([2H])C([2H])([2H])C1([2H])[2H]` [P-2177, N-[5-chloro-3-[5-(2-cyclopropylpyrimidin-5-yl)-1H-pyrrolo[2,3-b]pyridine-3-carbonyl]-2-fluoro-phenyl]-2,2,3,3,4,4,5,5-octadeuterio-pyrrolidine-1-sulfonamide], the IC50 (on BRAF V600E; in experiment [2]) was 0.0001 to 1 µM throughout. Further, the 50% effective concentration (EC50) (with B9 (HRAS Q61L) cell line; in experiment [1]) was more than 10 µM throughout.
As for `COc1ccnc2[nH]cc(C(=O)c3c(F)ccc(NS(=O)(=O)N4CCOCC4)c3F)c12` [P-2023, N-[2,4-difluoro-3-(4-methoxy-1H-pyrrolo[2,3-b]pyridine-3-carbonyl)phenyl]morpholine-4-sulfonamide], the IC50 at BRAF V600E was 0.0001 to 1 µM; in experiment [2] it was 1 to 10 µM. In addition, the concentration giving a half-maximal response (EC50) (in the experiment on B9 (HRAS Q61L) cell line; in experiment [1]) was more than 10 µM throughout.
For `O=C(c1c(F)ccc(NS(=O)(=O)C2CCCCC2)c1F)c1c[nH]c2ncnc(NCC3CC3)c12` [P-2049, N-[3-[4-(cyclopropylmethylamino)-7H-pyrrolo[2,3-d]pyrimidine-5-carbonyl]-2,4-difluoro-phenyl]cyclohexanesulfonamide], the IC50 (against BRAF V600E; in experiment [2]) was 0.0001 to 1 µM throughout. Further, the EC50 (in the experiment on B9 (HRAS Q61L) cell line; in experiment [1]) was more than 10 µM each time.
As for `CC(=O)Nc1ccc(NC(=O)c2c(F)ccc(NS(=O)(=O)N3CCCCC3)c2F)cn1` [P-2033, N-(6-acetamido-3-pyridyl)-2,6-difluoro-3-(1-piperidylsulfonylamino)benzamide], the IC50 at BRAF V600E is 0.0001 to 1 µM; in experiment [2], more than 10 µM. The EC50 (in the experiment with B9 (HRAS Q61L) cell line; in experiment [1]) was more than 10 µM in each case.
Regarding `O=C(c1cccc(NS(=O)(=O)N2CCCC2)c1F)c1c[nH]c2ncnc(NCC3CC(O)C3)c12` (centres unmarked) [P-2098, N-[2-fluoro-3-[4-[(3-hydroxycyclobutyl)methylamino]-7H-pyrrolo[2,3-d]pyrimidine-5-carbonyl]phenyl]pyrrolidine-1-sulfonamide], the IC50 (on BRAF V600E; in experiment [2]) was 0.0001 to 1 µM throughout. For the same compound, the 50% effective concentration (EC50) (in the experiment with B9 (HRAS Q61L) cell line; in experiment [1]) was more than 10 µM in each case.

For the origin of these results see patent US10421761B2, “Compounds for kinase modulation, and indications therefor” (Plexxikon Inc., priority 2013, dated 2019).
